The term melting point denotes the temperature of the solid-liquid transition. What is called IC50 is the concentration at which inhibition is half-maximal. A higher IC50 goes with weaker potency in that assay.

Each structure is given as a SMILES string. Counter-ions that a name gives are not always drawn.

One series concerns the target T1, PDE9 (Homo sapiens, UniProt O76083).
T1 construct: made in house
The series is described as follows: PDE9-inhibiting activity (SPA, 3H-cGMP degradation). It counts as biochemical. Particulars: PDE9-inhibiting activity (IC50 values), cGMP 1 μM, 30° C. The procedure:
The PDE9 used in the present experiment was expressed/purified by the method as in, for example, Guipponi et al., and Fisher et., al. (Fisher, D. A., et al., J. Biol. Chem., 273: pp. 15559-15564 (1998), Guipponi, M., et al., Hum. Genet., 103: pp. 386-392 (1998)).
(2) Evaluation of PDE9-Inhibiting Activity
The PDE9-inhibiting activity was measured by the following method. That is, to a buffer solution containing tris(hydroxymethyl)aminomethane-hydrochloric acid (40 mM, pH 8.0), magnesium chloride (5 mM), and 2-mercaptoethanol (4 mM) were added cGMP (1 μM) and ^3H-cGMP (0.33 μCi/ml) to give a substrate buffer solution. A test substance solution and an enzyme solution which had been adjusted to an optimal concentration were added thereto to perform a reaction at 30° C. The enzyme reaction was stopped by the addition of Scintillation Proximity Assay (SPA) Beads (Perkin Elmer, USA) containing 5 mM 3-isobutyl-1-methylxanthine (IBMX). For the enzyme activity, the amount of 5′-GMP, which is a reaction degradation product bound to SPA beads, was measured with a TopCount microplate reader (Hewlett Packard, USA).
The inhibitory rate was calculated by taking the radioactivity of the control containing no test substance as (A), taking the radioactivity of the blank containing no enzyme as (B), and taking the radioactivity of the test substance as (C), and using the following equation. Inhibitory rate=100−{(C)−(B)/(A)−(B)}×100(%)

T1 sequence (O76083 whole entry): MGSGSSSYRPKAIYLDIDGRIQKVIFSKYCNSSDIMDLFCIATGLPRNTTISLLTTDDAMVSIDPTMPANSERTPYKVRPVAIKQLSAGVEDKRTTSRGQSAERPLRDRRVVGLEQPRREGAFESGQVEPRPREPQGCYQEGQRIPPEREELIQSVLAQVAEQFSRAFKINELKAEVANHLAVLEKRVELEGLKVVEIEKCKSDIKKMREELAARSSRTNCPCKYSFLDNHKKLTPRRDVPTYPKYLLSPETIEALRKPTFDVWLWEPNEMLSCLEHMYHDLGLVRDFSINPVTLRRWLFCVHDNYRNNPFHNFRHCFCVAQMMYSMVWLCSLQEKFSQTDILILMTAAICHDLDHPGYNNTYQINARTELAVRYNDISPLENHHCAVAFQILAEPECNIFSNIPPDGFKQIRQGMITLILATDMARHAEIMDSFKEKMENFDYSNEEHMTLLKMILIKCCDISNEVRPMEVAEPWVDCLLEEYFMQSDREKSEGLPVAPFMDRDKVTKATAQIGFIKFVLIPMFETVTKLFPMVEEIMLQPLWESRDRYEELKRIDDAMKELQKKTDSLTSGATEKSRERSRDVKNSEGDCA

As to `CCc1cnc2c(c1)CCN2C(=O)c1cc2[nH]c(=O)c3nnc(CC4CC4)n3c2cc1C` (as salt: hydrochloride) [Example 6, 1-(cyclopropylmethyl)-7-[(5-ethyl-2,3-dihydro-11′-pyrrolo[2,3-b]pyridin-1-yl)carbonyl]-8-methyl[1,2,4]triazolo[4,3-a]quinoxalin-4(5H)-one dihydrochloride], the melting point was in the range of 173 to 175 °C.
The compound `Cc1cc2c(cc1C(=O)N1CCc3cc(Br)cnc31)[nH]c(=O)c1cnc([C@@H]3CCC[C@@H]3O)n12` (racemic) [Example 5, 7-[(5-bromo-2,3-dihydro-1H-pyrrolo[2,3-b]pyridin-1-yl)carbonyl]-1-(cis-2-hydroxycyclopentyl)-8-methylimidazo[1,5-a]quinoxalin-4(5H)-one] showed a melting point of 296 to 303 °C. At PDE9, this compound registered a concentration for half-maximal inhibition (IC50) of 62 nM.
In the case of `COCc1cc2c(cc1C(=O)N1CCc3cc(C)cnc31)[nH]c(=O)c1cnc(C3CCOC3)n12` (single isomer, unassigned) [Example 25(a)], at PDE9, the concentration for half-maximal inhibition (IC50) turned out to be 62 nM.
The same measure, in the same setting: then `Cc1cnc2c(c1)CCN2C(=O)c1cc2[nH]c(=O)c3cnc(C4CCOC4)n3c2cc1C` (single isomer, unassigned) [Example 26(a)], with 152 nM; and `Cc1cnc2c(c1)CCN2C(=O)c1cc2[nH]c(=O)c3cnc(C4CCOC4)n3c2cc1C` (single isomer, unassigned) [Example 26(b)], with 45 nM.
In turn, `COc1cc2c(cn1)N(C(=O)c1cc3[nH]c(=O)c4cnc(C5CCOC5)n4c3cc1C)CC2` (single isomer, unassigned) [Example 27(a)] had an IC50 against PDE9 of 137 nM. This IC50 is about 3-fold higher than that of the compound before.
`CCc1cnc2c(c1)CCN2C(=O)c1cc2[nH]c(=O)c3cnc(C4CCOC4)n3c2cc1C` (single isomer, unassigned) [Example 28(a)]: the 50% inhibitory concentration (IC50) at PDE9 is 139 nM.
On PDE9, `CCc1cnc2c(c1)CCN2C(=O)c1cc2[nH]c(=O)c3cnc(C4CCOC4)n3c2cc1C` (single isomer, unassigned) [Example 28(b)] yielded a half-inhibitory concentration (IC50) of 47 nM.
The same measure, in the same setting: then `Cc1cc2c(cc1C(=O)N1CCc3cc(Br)cnc31)[nH]c(=O)c1cnc(C3CCOC3)n12` (single isomer, unassigned) [Example 29(a)], with 24 nM; and `Cc1cc2c(cc1C(=O)N1CCc3cc(F)c(F)cc31)[nH]c(=O)c1cnc(C3CCOC3)n12` (single isomer, unassigned) [Example 30(a)], with 38 nM.
Same read-out and setting: in the case of `Cc1cc2c(cc1C(=O)N1Cc3c(F)ccc(F)c3C1)[nH]c(=O)c1cnc(C3CCOC3)n12` (single isomer, unassigned) [Example 39(a)] it was 52 nM.
As for `Cc1cc2c(cc1C(=O)N1Cc3c(F)ccc(F)c3C1)[nH]c(=O)c1cnc(C3CCOC3)n12` (single isomer, unassigned) [Example 39(b)], on PDE9, the midpoint of inhibition, the IC50, lay at 14 nM.
Same read-out and setting: then `CCc1cnc2c(c1)CCN2C(=O)c1cc2[nH]c(=O)c3cnc(C4CCOC4)n3c2cc1COC` (single isomer, unassigned) [Example 40(a)], with 77 nM; and `CCc1cnc2c(c1)CCN2C(=O)c1cc2[nH]c(=O)c3cnc(C4CCOC4)n3c2cc1COC` (single isomer, unassigned) [Example 40(b)], with 16 nM; and `COCc1cc2c(cc1C(=O)N1CCc3cc(Br)cnc31)[nH]c(=O)c1cnc(C3CCOC3)n12` (single isomer, unassigned) [Example 43(a)], with 25 nM.
`COCc1cc2c(cc1C(=O)N1Cc3c(F)ccc(F)c3C1)[nH]c(=O)c1cnc(C3CCOC3)n12` (single isomer, unassigned) [Example 45(a)]: the midpoint of inhibition at PDE9, the IC50, lay at 26 nM.
The compound `COCc1cc2c(cc1C(=O)N1CCc3cc(OC)ncc31)[nH]c(=O)c1cnc(C3CCOC3)n12` (single isomer, unassigned; (-)) [Example 4(a), (−)-7-[(5-methoxy-2,3-dihydro-1H-pyrrolo[2,3-c]pyridin-1-yl)carbonyl]-8-(methoxymethyl)-1-(tetrahydrofuran-3-yl)imidazo[1,5-a]quinoxalin-4(5H)-one dihydrochloride] registered an IC50 against PDE9 of 62 nM. This IC50 lies about 2.4-fold higher than the previous one.
For the compound `O=C(c1cc2[nH]c(=O)c3cnc(C4CCOCC4)n3c2cc1OCC1CCOC1)N1CCc2cc(Br)cnc21` (stereo not drawn) [Example 1, 7-[(5-bromo-2,3-dihydro-1H-pyrrolo[2,3-b]pyridin-1-yl)carbonyl]-8-(tetrahydrofuran-3-ylmethoxy)-1-(tetrahydro-2H-pyran-4-yl)imidazo[1,5-a]quinoxalin-4(5H)-one], the melting point is 321 to 324 °C (dec.). The compound also yielded an IC50 against PDE9 of 3.5 nM.
The corresponding values for `COc1cc2c(cn1)N(C(=O)c1cc3[nH]c(=O)c4cnc(C5CCOCC5)n4c3cc1F)CC2` [Example 2, 8-fluoro-7-[(5-methoxy-2,3-dihydro-1H-pyrrolo[2,3-c]pyridin-1-yl)carbonyl]-1-(tetrahydro-2H-pyran-4-yl)imidazo[1,5-a]quinoxalin-4(5H)-one] are 275 to 277 °C and 51 nM.
The matching figures for `COc1cc2c(cn1)N(C(=O)c1cc3[nH]c(=O)c4cnc(C5CCCOC5)n4c3cc1C)CC2` (stereo not drawn) [Example 3, 7-[(5-methoxy-2,3-dihydro-1H-pyrrolo[2,3-c]pyridin-1-yl)carbonyl]-8-methyl-1-(tetrahydro-2H-pyran-3-yl)imidazo[1,5-a]quinoxalin-4(5H)-one]: 297 to 299 °C and 22 nM.
`CCc1cnc2c(c1)CCN2C(=O)c1cc2[nH]c(=O)c3nnc(CC4CC4)n3c2cc1C` [Example 6, 1-(cyclopropylmethyl)-7-[(5-ethyl-2,3-dihydro-11′-pyrrolo[2,3-b]pyridin-1-yl)carbonyl]-8-methyl[1,2,4]triazolo[4,3-a]quinoxalin-4(5H)-one dihydrochloride] displayed an IC50 against PDE9 of 64 nM.
`Cc1cc2c(cc1C(=O)N1c3ccc(Cl)cc3CC1C)[nH]c(=O)c1nnc(C3CCOCC3)n12.Cl` (stereo not drawn) [Example 7]: the melting point lay within 324 to 326 °C. The same compound returned a half-inhibitory concentration (IC50) at PDE9 of 2.1 nM.
The corresponding values for `COC1CC(c2nnc3c(=O)[nH]c4cc(C(=O)N5CCc6cc(Cl)ccc65)c(C)cc4n23)C1.Cl` (stereo not drawn) [Example 8] are 200 to 202 °C and 2.8 nM.
Compound `COCC1Cc2cc(Cl)ccc2N1C(=O)c1cc2[nH]c(=O)c3nnc(C4CCOCC4)n3c2cc1C` (stereo not drawn) [Example 9] showed an IC50 against PDE9 of 1.3 nM.
With `Cl.O=C(c1cc2[nH]c(=O)c3cnc(C4CCOCC4)n3c2cc1OCC1CCOC1)N1CCc2cc(F)ccc21` (stereo not drawn) [Example 10], the melting point lay in the range of 177 to 180 °C. The compound also gave an IC50 against PDE9 of 4.5 nM.
Regarding `Cc1cc2c(cc1C(=O)N1Cc3cccc(CN(C)C)c3C1)[nH]c(=O)c1cnc(C3CCOCC3)n12` [Example 11], on PDE9, the IC50 was found to be 31 nM.
At PDE9, `O=C(c1cc2[nH]c(=O)c3cnc(C4CCOCC4)n3c2cc1F)N1CCc2cc(Cl)ccc21` [Example 12] had a 50% inhibitory concentration (IC50) of 3.6 nM.
`CCc1cnc2c(c1)CCN2C(=O)c1cc2[nH]c(=O)c3cnc(C4CCOCC4)n3c2cc1C` [Example 13] had a melting point of 331 to 333 °C. For the same compound, 14 nM corresponded to half-maximal inhibition against PDE9 (IC50).
Consider `COCc1cccc2c1CN(C(=O)c1cc3[nH]c(=O)c4cnc(C5CCOCC5)n4c3cc1C)C2` [Example 14], for which, at PDE9, the concentration for half-maximal inhibition (IC50) is 14 nM. That is a double-digit nanomolar value.
The compound `COC1CC(c2nnc3c(=O)[nH]c4cc(C(=O)N5CCc6cc(Br)ccc65)c(C)cc4n23)C1.Cl` (stereo not drawn) [Example 15] gave a melting point of 188 to 189 °C. On PDE9, this compound returned an IC50 of 2.8 nM.
Turning to `CCc1cc2c(cc1C(=O)N1CCc3cc(Cl)ccc31)[nH]c(=O)c1nnc(CC3CC3)n12` [Example 16], on PDE9, half-maximal inhibition (IC50) required 3.3 nM.
As for `CCc1cc2c(cc1C(=O)N1CCc3cc(F)ccc31)[nH]c(=O)c1nnc(CC3CC3)n12` [Example 17], on PDE9, half-maximal inhibition (IC50) was put at 8.5 nM.
In the case of `CCc1cc2c(cc1C(=O)N1CCc3cc(Br)cnc31)[nH]c(=O)c1nnc(CC3CC3)n12` [Example 18], the IC50 on PDE9 stood at 5.4 nM.
Still for that read-out and setting: then `CCc1cnc2c(c1)CCN2C(=O)c1cc2[nH]c(=O)c3cnc(C4CCOC4)n3c2cc1C` (stereo not drawn) [Example 28], with 52 nM.
The same measure, in the same setting: in the case of `Cc1cc2c(cc1C(=O)N1CCc3cc(Br)cnc31)[nH]c(=O)c1cnc(C3CCOC3)n12` (stereo not drawn) [Example 29] it was 15 nM; in that of `Cc1cc2c(cc1C(=O)N1CCc3cc(F)c(F)cc31)[nH]c(=O)c1cnc(C3CCOC3)n12` (stereo not drawn) [Example 30], 11 nM; in that of `Cc1cc2c(cc1C(=O)N1CC(C)(C)c3cc(Br)cnc31)[nH]c(=O)c1nnc(C3CCOCC3)n12` [Example 33], 0.81 nM.
On the same count and under the same terms, then `COC1CC(c2nnc3c(=O)[nH]c4cc(C(=O)N5CCc6cc(Br)cnc65)c(C)cc4n23)C1` (stereo not drawn) [Example 34], with 7.5 nM.
Take `CCc1cc2c(cc1C(=O)N1CCc3cc(Br)cnc31)[nH]c(=O)c1nnc(C3CCC3)n12` [Example 35]: at PDE9, the IC50 came to 19 nM.
On PDE9, `Cc1cc2c(cc1C(=O)N1Cc3c(F)ccc(F)c3C1)[nH]c(=O)c1nnc(C3CCC3)n12` [Example 36] came in with an IC50 of 53 nM. Against the preceding compound, the IC50 is about 2.8-fold higher.
Still for that read-out and setting: in the case of `CCc1cc2c(cc1C(=O)N1Cc3c(F)ccc(F)c3C1)[nH]c(=O)c1nnc(C3CCC3)n12` [Example 37] it was 53 nM; in that of `Cc1cc2c(cc1C(=O)N1Cc3c(F)ccc(F)c3C1)[nH]c(=O)c1nnc(CC3CC3)n12` [Example 38], 28 nM.

The values above are taken from patent US8901126B2, “Substituted imidazo[1,5-A]quinoxalin-4-ones are useful for preventing or treating storage dysfunction, voiding dysfunction and bladder/urethral diseases” (priority 2010, dated 2014).
